GI50 and TGI data for 17 compounds are collected here from PubChem BioAssay (NCI).

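Dose response: 5 concentrations. Exposure: 48 h. Format: 96-well plates. Endpoint: linear interpolation; highest concentration if not reached. GI50: concentration for 50% inhibition of growth. Definition used: TGI = concentration required for complete inhibition of growth.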 A value given as a limit tells only on which side of the number the result lay.

Test systems include MALME-3M melanoma; OVCAR-3 ovarian; NCI-H23 lung; CAKI-1 renal; U251 CNS; CCRF-CEM leukemia; SF-268 CNS; NCI-H522 lung; SN12C renal; RXF 393 renal.
What all share (assay): NCI-60 cell line screen, 48 h

Consider `Cc1ccc(-n2c(-c3cc4c([nH]c5ccccc54)c(-c4cccc(O)c4)n3)n[nH]c2=S)cc1`, for which the GI50 is 2.57 µM in the assay on MALME-3M melanoma; 0.399 µM in the assay with OVCAR-3 ovarian; 1.67 µM with NCI-H23 lung; 1.73 µM in the assay on CAKI-1 renal; 0.371 µM with U251 CNS; 0.682 µM with CCRF-CEM leukemia. In addition, the GI50 in the assay with SF-268 CNS is 1.32 µM; in the assay on NCI-H522 lung, 0.861 µM; in the assay on SN12C renal it was 0.936 µM. Also, the TGI with MALME-3M melanoma stood at 17.6 µM; with OVCAR-3 ovarian, 1.86 µM; with NCI-H23 lung it was 9.84 µM; in the assay with CAKI-1 renal, 4.9 µM; in the assay on U251 CNS, 2.22 µM; in the assay with CCRF-CEM leukemia, 11.6 µM. In addition, the TGI with SF-268 CNS amounted to 10.6 µM; in the assay with NCI-H522 lung it was 5.27 µM; with SN12C renal it was 6.91 µM.
As for `N#C/C(=C1\OC(=N)C(c2ccc(Cl)cc2Cl)C1=O)c1ccc(Cl)cc1Cl` (centres undefined), the TGI with MALME-3M melanoma, in the assay on OVCAR-3 ovarian, in the assay on NCI-H23 lung, in the assay with CAKI-1 renal, in the assay on SF-268 CNS and in the assay on NCI-H522 lung was more than 100 µM each time. The TGI with RXF 393 renal and in the assay with SN12C renal was more than 100 µM each time.
Regarding `N#CC1C(N)=NNC12Nc1ccccc1S2` (centres undefined), the GI50 is 10.3 µM with OVCAR-3 ovarian; 5.23 µM in the assay with NCI-H23 lung; 23.4 µM in the assay on CAKI-1 renal; 5.84 µM with U251 CNS; 62.9 µM in the assay with SF-268 CNS; 7.8 µM in the assay with NCI-H522 lung. The GI50 in the assay with SN12C renal was 24.4 µM. Besides, the TGI with OVCAR-3 ovarian is 43.9 µM; in the assay on NCI-H23 lung it was 22.8 µM; with CAKI-1 renal, more than 100 µM; with U251 CNS it was 20.3 µM; in the assay with SF-268 CNS it was more than 100 µM; in the assay on NCI-H522 lung it was 29.7 µM. In addition, the TGI in the assay with SN12C renal was 60.2 µM.
Turning to `C=CC[N+]1(CC)CCN=C1CCCCCCCCCCCCCCCCC` (centres undefined), the GI50 with NCI-H23 lung was 0.119 µM; with CAKI-1 renal, 1.2 µM; in the assay on U251 CNS, 0.386 µM; in the assay on SF-268 CNS, 0.236 µM; in the assay on RXF 393 renal it was 0.205 µM; in the assay with SN12C renal, 0.623 µM. Besides, the TGI came to 0.589 µM with NCI-H23 lung; 2.63 µM in the assay with CAKI-1 renal; 1.47 µM with U251 CNS; 0.61 µM in the assay on SF-268 CNS; 0.836 µM in the assay on RXF 393 renal; 1.99 µM in the assay on SN12C renal.
Take `O=C1/C(=C/c2ccccc2O)N=C(c2ccccc2)N1c1cc(C(F)(F)F)ccc1Cl`: the GI50 in the assay with MALME-3M melanoma is 46.7 µM; in the assay on OVCAR-3 ovarian it was 54.2 µM; with NCI-H23 lung, 80.1 µM; in the assay with CAKI-1 renal, 14.3 µM; with U251 CNS, 23.3 µM; with SF-268 CNS, 26.2 µM. Moreover, the values for the GI50 with NCI-H522 lung, with RXF 393 renal and in the assay with SN12C renal were 48.4 µM, 29.9 µM and 53.6 µM, respectively. Besides, the TGI was more than 100 µM with MALME-3M melanoma; more than 100 µM in the assay with OVCAR-3 ovarian; more than 100 µM with NCI-H23 lung; 38.5 µM with CAKI-1 renal; 61.9 µM in the assay with U251 CNS; 97.4 µM with SF-268 CNS. For the same compound, the results for the TGI in the assay on NCI-H522 lung, in the assay on RXF 393 renal and with SN12C renal were more than 100 µM, 81.3 µM and more than 100 µM, respectively.
Regarding `C=CC(=O)N[C@@H](/C=C/C(=O)OCC)Cc1ccc(-c2cc(Cl)cc(Cl)c2)cc1`, the GI50 in the assay with MALME-3M melanoma was 10.9 µM; in the assay with OVCAR-3 ovarian it was 7.27 µM; in the assay with NCI-H23 lung it was 11.8 µM; in the assay on CAKI-1 renal, 21.5 µM; in the assay on U251 CNS it was 17.2 µM; with SF-268 CNS it was 16 µM. Also, the figures for the GI50 in the assay on NCI-H522 lung, in the assay on RXF 393 renal and with SN12C renal were 7.6 µM, 7.96 µM and 8.04 µM, respectively. Besides, the TGI in the assay on MALME-3M melanoma was 34.1 µM; in the assay on OVCAR-3 ovarian, 53.1 µM; with NCI-H23 lung, more than 100 µM; with CAKI-1 renal it was more than 100 µM; in the assay on U251 CNS it was more than 100 µM; in the assay with SF-268 CNS, more than 100 µM. Also, the TGI was 24.9 µM with NCI-H522 lung, 35.3 µM in the assay on RXF 393 renal and 26.7 µM with SN12C renal.
As to `C/C(=N\NC(=O)C(N)=O)c1c(O)cc(C)oc1=O`, the TGI in the assay with MALME-3M melanoma, in the assay on NCI-H23 lung, in the assay with U251 CNS, with CCRF-CEM leukemia, with SF-268 CNS and in the assay on SN12C renal was more than 100 µM in each case.
Consider `CC(=O)CC(=O)CCC(=O)Nc1cccc(C(F)(F)F)c1`, for which the TGI with MALME-3M melanoma, in the assay with OVCAR-3 ovarian, in the assay on NCI-H23 lung, in the assay with CAKI-1 renal, in the assay on U251 CNS and with CCRF-CEM leukemia was more than 100 µM each time. Further, the TGI in the assay with SF-268 CNS, in the assay with NCI-H522 lung and with SN12C renal was more than 100 µM in each case.
As for `C=C1C=CC2(Br)OC3CC(C)(Cl)C(Br)CC13C2(C)C` (centres undefined), the TGI in the assay with MALME-3M melanoma was 34.5 µM; in the assay on OVCAR-3 ovarian it was 40.8 µM; with NCI-H23 lung, 39.2 µM; with CAKI-1 renal it was more than 100 µM; with U251 CNS it was 35.3 µM; with CCRF-CEM leukemia, 47.5 µM. Further, the TGI was more than 100 µM with SF-268 CNS, 30.1 µM with NCI-H522 lung and 37.7 µM in the assay on SN12C renal.
Turning to `Cc1ccc(C2=Nc3ccccc3SC(c3cccc4c3OCO4)C2)cc1` (centres undefined), the TGI in the assay with MALME-3M melanoma came out at 56 µM; with OVCAR-3 ovarian, 28.5 µM; in the assay with NCI-H23 lung, 39.8 µM; in the assay with CAKI-1 renal, 30 µM; in the assay with CCRF-CEM leukemia, 37.9 µM; in the assay on SF-268 CNS, 45.6 µM. The TGI was found to be 31 µM with NCI-H522 lung and 41 µM in the assay with SN12C renal.
In the case of `c1ccc(-c2csc3ncn4cnnc4c23)cc1`, the TGI with OVCAR-3 ovarian, in the assay on NCI-H23 lung, in the assay on U251 CNS, in the assay on CCRF-CEM leukemia, with NCI-H522 lung and with SN12C renal was more than 100 µM in each case.
Take `Cc1ccc(S(=O)(=O)NC(=O)OC23COCN2COC3)cc1`: the TGI in the assay on MALME-3M melanoma, in the assay on OVCAR-3 ovarian, with NCI-H23 lung, in the assay on CAKI-1 renal, in the assay on U251 CNS and in the assay on SF-268 CNS was more than 100 µM in each case. The TGI in the assay with NCI-H522 lung, in the assay with RXF 393 renal and in the assay with SN12C renal was more than 100 µM in each case.
For the compound `COC(=O)c1cc([N+](=O)[O-])cc([N+](=O)[O-])c1Cl`, the GI50 with MALME-3M melanoma was 1.95 µM; in the assay on OVCAR-3 ovarian, 1.78 µM; with NCI-H23 lung, 19.3 µM; in the assay on CAKI-1 renal it was 1.73 µM; in the assay on U251 CNS, 2.14 µM; with SF-268 CNS, 12.7 µM. Besides, the GI50 was 1.82 µM with NCI-H522 lung, 1.72 µM in the assay with RXF 393 renal and 3.15 µM in the assay on SN12C renal. In addition, the TGI in the assay on MALME-3M melanoma is 4.1 µM; with OVCAR-3 ovarian it was 3.2 µM; with NCI-H23 lung it was 69.6 µM; in the assay with CAKI-1 renal it was 3.28 µM; in the assay with U251 CNS, 4.78 µM; with SF-268 CNS, 25.4 µM. In addition, the TGI with NCI-H522 lung was 3.31 µM; in the assay on RXF 393 renal it was 3.12 µM; in the assay on SN12C renal, 11 µM.
With `Clc1ccc([I+]c2ccc(Cl)cc2Cl)c(Cl)c1`, the GI50 with MALME-3M melanoma is 1.73 µM; with OVCAR-3 ovarian, 1.65 µM; in the assay on NCI-H23 lung it was 2.13 µM; with CAKI-1 renal, 1.61 µM; with U251 CNS, 1.77 µM; in the assay on CCRF-CEM leukemia, 2.09 µM. In addition, the GI50 is 2.14 µM in the assay on SF-268 CNS, 1.62 µM in the assay on NCI-H522 lung and 1.85 µM in the assay with SN12C renal. Besides, the TGI in the assay on MALME-3M melanoma was found to be 3.61 µM; with OVCAR-3 ovarian it was 3.09 µM; in the assay with NCI-H23 lung it was 4.83 µM; in the assay with CAKI-1 renal, 3.32 µM; with U251 CNS, 3.38 µM; in the assay on CCRF-CEM leukemia, 5.32 µM. Also, the TGI turned out to be 4.99 µM in the assay with SF-268 CNS, 3.01 µM in the assay on NCI-H522 lung and 3.9 µM with SN12C renal.
Turning to `COc1cc(/C=C/C(=O)O[C@H]2[C@H](O[C@@H]3O[C@@H](C)[C@H](O)[C@@H](O)[C@H]3O)[C@@H](O)[C@H](OCCc3ccc(O)c(O)c3)O[C@@H]2COC2OCC(O)(CO)C2O)ccc1O` (some centres undefined), the GI50 was more than 100 µM in the assay with OVCAR-3 ovarian; more than 100 µM in the assay with CAKI-1 renal; more than 100 µM in the assay with U251 CNS; 49.3 µM in the assay with SF-268 CNS; more than 100 µM in the assay on NCI-H522 lung; more than 100 µM in the assay on RXF 393 renal. The GI50 in the assay on SN12C renal was more than 100 µM. Further, the TGI in the assay on OVCAR-3 ovarian, in the assay on CAKI-1 renal, with U251 CNS, in the assay with SF-268 CNS, in the assay with NCI-H522 lung and in the assay with RXF 393 renal was more than 100 µM in each case. Also, the TGI in the assay on SN12C renal was more than 100 µM.
For the compound `O=C1C(Sc2ccc3ccccc3c2)=C(Sc2ccc3ccccc3c2)C(=O)c2ccccc21`, the TGI in the assay on NCI-H23 lung was found to be 22.1 µM; with U251 CNS it was 19.1 µM; in the assay with SF-268 CNS it was 28.7 µM; with NCI-H522 lung, 10.6 µM; with RXF 393 renal, 32.6 µM; in the assay with SN12C renal, 24.7 µM.
On to `N#Cc1cc2c(cc1Cl)Sc1nnc(Nc3cccc4ccccc34)n1S2(=O)=O`, for which the GI50 is 2.03 µM with MALME-3M melanoma; 1.77 µM with OVCAR-3 ovarian; 1.8 µM in the assay with NCI-H23 lung; 3.14 µM in the assay on CAKI-1 renal; 3.23 µM in the assay on U251 CNS; 2.85 µM in the assay with SF-268 CNS. Further, the GI50 is 21.6 µM in the assay on NCI-H522 lung, 2.02 µM with RXF 393 renal and 2.51 µM in the assay on SN12C renal. Further, the TGI was 5.75 µM in the assay on MALME-3M melanoma; 3.47 µM in the assay on OVCAR-3 ovarian; 3.43 µM in the assay on NCI-H23 lung; 10.9 µM in the assay on CAKI-1 renal; 10.7 µM with U251 CNS; 10.1 µM with SF-268 CNS. The TGI with NCI-H522 lung was more than 100 µM; in the assay with RXF 393 renal it was 4.15 µM; in the assay on SN12C renal, 6.73 µM.
